We go through two compounds from patent US20070021501A1, “Methods of treating epileptogenesis” (priority 2005, published 2007).

Experiment [1] concerns lithium-pilocarpine model of temporal lobe epilepsy in the rat. Put plainly: Latency to and frequency of spontaneous recurrent seizures (SRS), lithium-pilocarpine model (Example 1). The class given is in vivo. The protocol: (§1) The bilateral EEG cortical activity was recorded during the whole duration of SE and behavioral changes were noted.
(§2) The effects of increasing doses of the test compound were studied on 3 groups of rats. The animals of the first group received 10 mg/kg of the test compound, i.p., 1 h after the onset of SE (pilo-TC10) while the animals of groups 2 and 3 received 30 and 60 mg/kg of the test compound (pilo-TC30 and pilo-TC60), respectively.
The control group received saline instead of pilocarpine and the test compound (saline-saline). […] Pilo-DZP received a second injection of 1 mg/kg DZP on the day of SE at about 10 h after the first one. Thereafter, Pilo-DZP and saline-saline rats received twice daily an equivalent volume of saline. […]
To calculate the frequency of SRS in pilocarpine-exposed rats, the seizure severity and distinguished stage III (clonic seizures of facial muscles and anterior limbs) and stage IV-V seizures (rearing and falling) was considered. […] The frequency of more severe stage IV-V SRS was highest during the first week in most groups, except pilo-TC30 and TC60 with late seizure onset where the SRS frequency was constant over the whole 4 weeks in TC30 group and over the first two weeks in the pilo-TC60 group with late SRS onset in which no stage IV-V seizures where no seizures recorded after the second week.

Experiment [2] relates to lithium-pilocarpine status epilepticus in the rat. Put plainly: Mortality induced by SE, lithium-pilocarpine model (Example 1). The class given is in vivo.
Text: The model induced in rats by pilocarpine associated with lithium (Li-Pilo) reproduces most of the clinical and neurophysiological features of human temporal lobe epilepsy (Turski et al., 1989, Synapse 3:154-171; Cavalheiro, 1995, Ital J Neurol Sci 16:33-37). In adult rats, the systemic administration of pilocarpine leads to status epilepticus (SE). The lethality rate reaches 30-50% during the first days. In the surviving animals, neuronal damage predominates within the hippocampal formation, the piriform and entorhinal cortices, thalamus, amygdaloid complex, neocortex and substantia nigra.
Male Wistar rats weighing 225-250 g, provided by Janvier Breeding Center (Le Genest-St-lste, France) were housed under controlled standard conditions (light/dark cycle, 7.00 a.m.-7.00 p.m. lights on), with food and water available ad libitum. All animal experimentation was performed in accordance with the rules of the European Communities Council Directive of Nov. 24, 1986 (86/609/EEC), and the French Department of Agriculture (License N^o 67-97). For electrode implantation, rats were anesthetized by an i.p. injection of 2.5 mg/kg diazepam (DZP, Valium, Roche, France) and […] ketamine chlorhydrate (Imalgene 1000, Rhone Merrieux, France). Four single-contact recording electrodes were placed on the skull, over the parietal cortex, two on each side.
as §1, §2
The control group received saline instead of pilocarpine and the test compound (saline-saline). […] Pilo-DZP received a second injection of 1 mg/kg DZP on the day of SE at about 10 h after the first one. Thereafter, Pilo-DZP and saline-saline rats received twice daily an equivalent volume of saline.

Take `NC(=O)OC[C@@H](O)c1ccccc1Cl` [TC]: the “frequency of stage III SRS” value in experiment [1] (TC 10 mg/kg, weeks 3 and 4) is reported as “significantly increased over pilo-DZP values”. For the same compound, the occurrence of epilepsy result in experiment [1] (TC 60 mg/kg, one rat) is “did not become epileptic in a delay of 9 months post-SE”. Further, the “mortality during the first 48 h after SE” value in experiment [2] (TC 10 mg/kg i.p. 1 h after onset of SE (6/23)) is reported as 26%; in experiment [2] (TC 30 mg/kg i.p. 1 h after onset of SE (5/25)) it was 20%; in experiment [2] (TC 60 mg/kg i.p. 1 h after onset of SE (1/23), p<0.01), 4%.
Turning to `CN1C(=O)CN=C(c2ccccc2)c2cc(Cl)ccc21` [DZP, diazepam], in experiment [2] (DZP 2 mg/kg i.m. 1 h after onset of SE (5/22)), the “mortality during the first 48 h after SE” value was 23%.
